Results from PubChem BioAssay AID1918994 (Molecular Pharmacology Branch, DTP, NCI, 2023).

System: 292921-168-R-J2-PDC complex spheroid growth
Assay: Anticancer human tumor 292921-168-R-J2-PDC patient-derived pancreatic carcinoma cell line growth inhibition [AhR]
Conditions: for IC50: curve of first compound; for viability, T/C: stronger effect = lower value
Outline: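 Complex tumor spheroids co-cultured with HUVEC and human MSC stroma; AhR antagonists tested in combination with standard-of-care and investigational agents. Top concentration at or near clinical Cmax (else 10 microM), half-log dilutions; growth expressed as percent test/control.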

[1] = second compound 0.1 µM, first compound 0.0316 µM
[2] = second compound 0.1 µM, first compound 0.1 µM
[3] = second compound 0.1 µM, first compound 0.316 µM
[4] = second compound 0.1 µM, first compound 1 µM
[5] = second compound 0.1 µM, first compound 3.16 µM
[6] = second compound 0.1 µM, first compound 10 µM
[7] = second compound 0.316 µM, first compound 0.0316 µM
[8] = second compound 0.316 µM, first compound 0.1 µM
[9] = second compound 0.316 µM, first compound 0.316 µM
[10] = second compound 0.316 µM, first compound 1 µM
[11] = second compound 0.316 µM, first compound 3.16 µM
[12] = second compound 0.316 µM, first compound 10 µM
[13] = second compound 1 µM, first compound 0.0316 µM
[14] = second compound 1 µM, first compound 0.1 µM
[15] = second compound 1 µM, first compound 0.316 µM
[16] = second compound 1 µM, first compound 1 µM
[17] = second compound 1 µM, first compound 3.16 µM
[18] = second compound 1 µM, first compound 10 µM
[19] = second compound 3.16 µM, first compound 0.0316 µM
[20] = second compound 3.16 µM, first compound 0.1 µM
[21] = second compound 3.16 µM, first compound 0.316 µM
[22] = second compound 3.16 µM, first compound 1 µM
[23] = second compound 3.16 µM, first compound 3.16 µM
[24] = second compound 3.16 µM, first compound 10 µM
[25] = second compound 10 µM, first compound 0.0316 µM
[26] = second compound 10 µM, first compound 0.1 µM
[27] = second compound 10 µM, first compound 0.316 µM
[28] = second compound 10 µM, first compound 1 µM
[29] = second compound 10 µM, first compound 3.16 µM
[30] = second compound 10 µM, first compound 10 µM
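Also: spheroids exposed to compounds for seven days after three days of growth.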

Q: Which results are given for `CC1(C)CCC(CN2CCN(c3ccc(C(=O)NS(=O)(=O)c4ccc(NCC5CCOCC5)c([N+](=O)[O-])c4)c(Oc4cnc5[nH]ccc5c4)c3)CC2)=C(c2ccc(Cl)cc2)C1` + Cc1cncc(-c2nc(NCCc3c[nH]c4ccccc34)c3ncn(C(C)C)c3n2)c1?
A: IC50 (second compound 0.1 µM): 6870 nM; IC50 (second compound 0.316 µM): 6720 nM; IC50 (second compound 1 µM): 6790 nM; IC50 (second compound 3.16 µM): 5560 nM; IC50 (second compound 10 µM): 3330 nM; viability, T/C [1]: 101%; viability, T/C [2]: 96.2%; viability, T/C [3]: 92.9%; viability, T/C [4]: 105%; viability, T/C [5]: 99.4%; viability, T/C [6]: 26.2%; viability, T/C [7]: 96.6%; viability, T/C [8]: 104%; viability, T/C [9]: 105%; viability, T/C [10]: 90.6%; viability, T/C [11]: 95.1%; viability, T/C [12]: 26.1%; viability, T/C [13]: 80.2%; viability, T/C [14]: 91.7%; viability, T/C [15]: 90.1%; viability, T/C [16]: 96.5%; viability, T/C [17]: 102%; viability, T/C [18]: 28.6%; viability, T/C [19]: 67.9%; viability, T/C [20]: 76.3%; viability, T/C [21]: 80.6%; viability, T/C [22]: 77.6%; viability, T/C [23]: 79.7%; viability, T/C [24]: 22.3%; viability, T/C [25]: 54.9%; viability, T/C [26]: 52.7%; viability, T/C [27]: 52.9%; viability, T/C [28]: 50%; viability, T/C [29]: 51.4%; viability, T/C [30]: 26.8%

Q: How did the IC50 (second compound 0.1 µM) turn out when `CCN(c1cc(-c2ccc(CN3CCOCC3)cc2)cc(C(=O)NCc2c(C)cc(C)[nH]c2=O)c1C)C1CCOCC1` + Cc1cncc(-c2nc(NCCc3c[nH]c4ccccc34)c3ncn(C(C)C)c3n2)c1 was run?
A: > 3000 nM

Q: And the IC50 (second compound 0.316 µM)?
A: > 3000 nM

Q: What about the IC50 (second compound 1 µM) of the same compound?
A: > 3000 nM

Q: And the IC50 (second compound 3.16 µM)?
A: > 3000 nM

Q: What about the IC50 (second compound 10 µM) of the same compound?
A: 34 nM

Q: What about the viability, T/C (second compound 0.1 µM, first compound 0.00949 µM) of the same compound?
A: 93.8%

Q: What about the viability, T/C (second compound 0.1 µM, first compound 0.03 µM) of the same compound?
A: 94.5%

Q: And the viability, T/C (second compound 0.1 µM, first compound 0.0949 µM)?
A: 92.7%

Q: And the viability, T/C (second compound 0.1 µM, first compound 0.3 µM)?
A: 84.9%

Q: And the viability, T/C (second compound 0.1 µM, first compound 0.949 µM)?
A: 82.7%

Q: And the viability, T/C (second compound 0.1 µM, first compound 3 µM)?
A: 67.3%

Q: What about the viability, T/C (second compound 0.316 µM, first compound 0.00949 µM) of the same compound?
A: 94.7%

Q: What about the viability, T/C (second compound 0.316 µM, first compound 0.03 µM) of the same compound?
A: 91.1%

Q: And the viability, T/C (second compound 0.316 µM, first compound 0.0949 µM)?
A: 90%

Q: And the viability, T/C (second compound 0.316 µM, first compound 0.3 µM)?
A: 77.6%

Q: And the viability, T/C (second compound 0.316 µM, first compound 0.949 µM)?
A: 78.5%

Q: And the viability, T/C (second compound 0.316 µM, first compound 3 µM)?
A: 83.3%

Q: What about the viability, T/C (second compound 1 µM, first compound 0.00949 µM) of the same compound?
A: 87.2%

Q: And the viability, T/C (second compound 1 µM, first compound 0.03 µM)?
A: 88.8%

Q: And the viability, T/C (second compound 1 µM, first compound 0.0949 µM)?
A: 84.9%

Q: What about the viability, T/C (second compound 1 µM, first compound 0.3 µM) of the same compound?
A: 76.4%

Q: And the viability, T/C (second compound 1 µM, first compound 0.949 µM)?
A: 75.4%

Q: What about the viability, T/C (second compound 1 µM, first compound 3 µM) of the same compound?
A: 75.8%

Q: What about the viability, T/C (second compound 3.16 µM, first compound 0.00949 µM) of the same compound?
A: 64.4%

Q: What about the viability, T/C (second compound 3.16 µM, first compound 0.03 µM) of the same compound?
A: 66.7%

Q: What about the viability, T/C (second compound 3.16 µM, first compound 0.0949 µM) of the same compound?
A: 73.2%

Q: And the viability, T/C (second compound 3.16 µM, first compound 0.3 µM)?
A: 64.2%

Q: And the viability, T/C (second compound 3.16 µM, first compound 0.949 µM)?
A: 62.8%

Q: What about the viability, T/C (second compound 3.16 µM, first compound 3 µM) of the same compound?
A: 52.7%

Q: And the viability, T/C (second compound 10 µM, first compound 0.00949 µM)?
A: 49.2%

Q: And the viability, T/C (second compound 10 µM, first compound 0.03 µM)?
A: 49.6%

Q: And the viability, T/C (second compound 10 µM, first compound 0.0949 µM)?
A: 52.7%

Q: What about the viability, T/C (second compound 10 µM, first compound 0.3 µM) of the same compound?
A: 49.3%

Q: What about the viability, T/C (second compound 10 µM, first compound 0.949 µM) of the same compound?
A: 41.1%

Q: What about the viability, T/C (second compound 10 µM, first compound 3 µM) of the same compound?
A: 45.3%

Q: How did the IC50 (second compound 0.1 µM) turn out when `Cn1ncnc1C1c2n[nH]c(=O)c3cc(F)cc(c23)NC1c1ccc(F)cc1` (stereo not given) + Cc1cncc(-c2nc(NCCc3c[nH]c4ccccc34)c3ncn(C(C)C)c3n2)c1 was run?
A: > 100 nM

Q: And the IC50 (second compound 0.316 µM)?
A: > 100 nM

Q: What about the IC50 (second compound 1 µM) of the same compound?
A: > 100 nM

Q: And the IC50 (second compound 3.16 µM)?
A: > 100 nM

Q: And the IC50 (second compound 10 µM)?
A: 35.1 nM

Q: What about the viability, T/C (second compound 0.1 µM, first compound 0.000316 µM) of the same compound?
A: 94.3%

Q: What about the viability, T/C (second compound 0.1 µM, first compound 0.001 µM) of the same compound?
A: 96.7%

Q: What about the viability, T/C (second compound 0.1 µM, first compound 0.00316 µM) of the same compound?
A: 86.5%

Q: What about the viability, T/C (second compound 0.1 µM, first compound 0.01 µM) of the same compound?
A: 95.5%

Q: And the viability, T/C [1]?
A: 83.9%

Q: And the viability, T/C [2]?
A: 82.6%

Q: What about the viability, T/C (second compound 0.316 µM, first compound 0.000316 µM) of the same compound?
A: 91.4%

Q: What about the viability, T/C (second compound 0.316 µM, first compound 0.001 µM) of the same compound?
A: 102%

Q: And the viability, T/C (second compound 0.316 µM, first compound 0.00316 µM)?
A: 83.6%

Q: And the viability, T/C (second compound 0.316 µM, first compound 0.01 µM)?
A: 89.2%

Q: What about the viability, T/C [7] of the same compound?
A: 83.7%

Q: And the viability, T/C [8]?
A: 76.7%

Q: And the viability, T/C (second compound 1 µM, first compound 0.000316 µM)?
A: 80.8%

Q: What about the viability, T/C (second compound 1 µM, first compound 0.001 µM) of the same compound?
A: 87.3%

Q: And the viability, T/C (second compound 1 µM, first compound 0.00316 µM)?
A: 85.6%

Q: What about the viability, T/C (second compound 1 µM, first compound 0.01 µM) of the same compound?
A: 73.8%

Q: And the viability, T/C [13]?
A: 74.5%

Q: And the viability, T/C [14]?
A: 81.9%

Q: What about the viability, T/C (second compound 3.16 µM, first compound 0.000316 µM) of the same compound?
A: 68.7%

Q: What about the viability, T/C (second compound 3.16 µM, first compound 0.001 µM) of the same compound?
A: 71.4%

Q: What about the viability, T/C (second compound 3.16 µM, first compound 0.00316 µM) of the same compound?
A: 72.3%

Q: What about the viability, T/C (second compound 3.16 µM, first compound 0.01 µM) of the same compound?
A: 56.2%

Q: What about the viability, T/C [19] of the same compound?
A: 60.1%

Q: What about the viability, T/C [20] of the same compound?
A: 66.2%

Q: And the viability, T/C (second compound 10 µM, first compound 0.000316 µM)?
A: 50.8%

Q: What about the viability, T/C (second compound 10 µM, first compound 0.001 µM) of the same compound?
A: 54.4%

Q: And the viability, T/C (second compound 10 µM, first compound 0.00316 µM)?
A: 55.5%

Q: And the viability, T/C (second compound 10 µM, first compound 0.01 µM)?
A: 52.5%

Q: And the viability, T/C [25]?
A: 47.7%

Q: What about the viability, T/C [26] of the same compound?
A: 48%

Q: `NS(=O)(=O)OCC1CC(n2ccc3c(NC4CCc5ccccc54)ncnc32)CC1O` (stereo not given) + Cc1cncc(-c2nc(NCCc3c[nH]c4ccccc34)c3ncn(C(C)C)c3n2)c1 was tested. Which IC50 (second compound 0.1 µM) did it give?
A: 227 nM

Q: What about the IC50 (second compound 0.316 µM) of the same compound?
A: 224 nM

Q: And the IC50 (second compound 1 µM)?
A: 231 nM

Q: What about the IC50 (second compound 3.16 µM) of the same compound?
A: 229 nM

Q: And the IC50 (second compound 10 µM)?
A: 221 nM

Q: What about the viability, T/C [1] of the same compound?
A: 136%

Q: And the viability, T/C [2]?
A: 111%

Q: What about the viability, T/C [3] of the same compound?
A: 25.1%

Q: What about the viability, T/C [4] of the same compound?
A: 6.77%

Q: What about the viability, T/C [5] of the same compound?
A: 5.38%

Q: And the viability, T/C [6]?
A: 5.4%

Q: And the viability, T/C [7]?
A: 133%

Q: What about the viability, T/C [8] of the same compound?
A: 108%

Q: And the viability, T/C [9]?
A: 25.1%

Q: And the viability, T/C [10]?
A: 7.33%

Q: And the viability, T/C [11]?
A: 5.81%

Q: What about the viability, T/C [12] of the same compound?
A: 5.63%

Q: And the viability, T/C [13]?
A: 117%

Q: And the viability, T/C [14]?
A: 104%

Q: And the viability, T/C [15]?
A: 30%

Q: What about the viability, T/C [16] of the same compound?
A: 6.44%

Q: And the viability, T/C [17]?
A: 6.99%

Q: And the viability, T/C [18]?
A: 7.06%

Q: And the viability, T/C [19]?
A: 111%

Q: And the viability, T/C [20]?
A: 93.7%

Q: And the viability, T/C [21]?
A: 33.1%

Q: What about the viability, T/C [22] of the same compound?
A: 8.82%

Q: What about the viability, T/C [23] of the same compound?
A: 7.53%

Q: And the viability, T/C [24]?
A: 6.05%

Q: And the viability, T/C [25]?
A: 69.9%

Q: What about the viability, T/C [26] of the same compound?
A: 76.7%

Q: What about the viability, T/C [27] of the same compound?
A: 39.5%

Q: And the viability, T/C [28]?
A: 13%

Q: What about the viability, T/C [29] of the same compound?
A: 9.88%

Q: What about the viability, T/C [30] of the same compound?
A: 7.28%
